# Reference: patent US20250043285A1, “Mammalian ATG8 Proteins and ATG9A Direct Sealing of Autophagosomal Membranes” (UNM Rainforest Innovations, priority 2023, published 2025)
# Entries after “also recorded” stand apart in the source; their conditions may differ.
# Experiments:
# [1] = test system: HeLa cells stably expressing HT-LC3B (LC3B^+ membranes including autophagosomes); experiment: HT-LC3B MIL/MPL assay by high content microscopy (autophagic membrane sealing); assay type: cell-based
# Description: HCM: MIL/MPL assay for assessment of autophagic membrane sealing. HaloTag-LC3B stable cell lines were seeded in 96 well plate at the density of 8,000 cells/well. After 18-24 h cells were induced for autophagy (EBSS for 90 min) or mitophagy (20 μM CCCP for 6 h). After induction, cells were incubated with Membrane Impermeant Ligand (MIL: Alexa Fluor-660 663Ex/690Em, 1 μM, Promega, G8471) prepared in 1×MAS buffer (220 mM mannitol, 70 mM sucrose, 10 mM KH2PO4, 5 mM MgCl2, 2 mM HEPES, 1 mM EGTA, from Sigma) containing XF-PMP (Agilent; 102504-100, 1.5 nM for Huh7 and 4 nM for HeLa cells) at 37° C. for 15 min. Cells were washed twice with 1×PBS and fixed with 4% paraformaldehyde (PFA, Sigma) in PBS for 5 min at RT. Cells were again washed twice with 1×PBS and incubated with Membrane-Permeant Ligand (MPL: TMR 5 μM, 555Ex/585Em, Promega, G8251) for 30 min at RT. Cells were washed once with 1×PBS and stained with Hoechst 33342 (Thermo Scientific, H3570, 1:1000) for 10 min at RT. Cells were washed twice and plate was scanned by High Content Microscopy (HCM) for automated image acquisition and quantification, iDEV software (Thermo) in 96-well plates^5. To test the role of mATG8s in autophagosome closure, we used the previously described strategy^41 employing stable cell lines expressing HT-LC3B, used to assess autophagosomal closure^41, 42, 45. We adapted this assay for high content microscopy (HCM) to allow unbiased operator-independent image collection, object identification and quantification, as previously established^30, 75 (FIG. 1C). […] The plates were scanned to quantify MPL^+ (sealed) and MIL^+ (unsealed) autophagosomes and any additional LC3B^+ structures, and data (quantitative HCM) presented as the number of MIL^+ or MPL^+ profiles/cell and their ratios (MIL/MPL) (FIG. 1D). MIL^+MPL^+ profiles were also observed but represented a very small fraction (<5%) and were not differentiated in quantifications.
# [2] = test system: Huh7^WT and Huh7^ATG9AKO cells; experiment: Western blot of Parkin and COX-II under CCCP-induced mitophagy; assay type: cell-based; conditions: BafA1 100 nM
# Excerpt: 13A. Schematic representation of proximity biotinylation proteomics (process stages) for LC MS/MS identification of APEX2-ATG9A partners in cells subjected to EBSS-induced autophagy and CCCP-induced mitophagy. 13B, List of ATG9A's key ESCRTs interactors and their peptide counts. 13C, HeLa^WT and HeLa^ATG9AKO cell line stably expressing YFP-Parkin were induced for mitophagy by CCCP or Olygomycin A and Antimycin A (OA). HCM was used to quantify mitophagy by determining remaining mtDNA puncta per cell. Blue squares, HeLa^WT stably expressing YFP-Parkin; red squares, HeLa^ATG9AKO stably expressing YFP-Parkin. 13D, HCM images illustrating mtDNA (red mask) in HeLa^WT and HeLa^ATG9AKO cells stably expressing YFP-Parkin. 13E, Western blot analysis of Huh7^WT and Huh7^ATG9AKO cells, under control conditions (full medium) or subjected to CCCP-induced mitophagy. […] 13G, Western blot analysis of LC3B lipidation in control and CCCP-induced mitophagy condition in Huh7^ATG9AWT or Huh7^ATG9AKO. 13H, Quantification of LC3B dots in Huh7^WT and Huh7^ATG9AKO cells under control conditions or subjected to CCCP-induced mitophagy. […] 13J,13K Quantification of p62 and NDP52 levels in control and proteinase K-treated samples. Statistical significance was determined by one-way ANOVA followed by Tukey's multiple comparison test, P<0.01. […]
smiles,measurement,setting,value
"CO/C1=C\C(C)=C\[C@@H](C)[C@@H](O)[C@@H](C)C/C(C)=C/C=C/[C@H](OC)[C@@H]([C@@H](C)[C@@H](O)[C@H](C)[C@@]2(O)C[C@@H](O)[C@H](C)[C@@H](C(C)C)O2)OC1=O [BafA1, Bafilomycin A1]",MPL^+ (sealed) profiles/cell,"[1]; HeLa^HexaKO HT-LC3B cells, starved in EBSS 90 min, 100 nM BafA1",could not be enhanced by BafA1 treatment
same,MPL^+ (sealed) profiles/cell,"[1]; HeLa^HexaKO, HeLa^LC3TKO and HeLa^GABATKO HT-LC3B cells, EBSS, 100 nM BafA1",no detectable further MPL^+ increase
same,MPL^+ (sealed) profiles/cell,"[1]; HeLa^WT HT-LC3B cells, starved in EBSS 90 min, 100 nM BafA1, vs EBSS alone",further elevated; also recorded: further increased in the presence of BafA1
same,Parkin and COX-II levels (immunoblot),[2],accumulation of Parkin and COX-II
